Laboratory results taken from the NIST ThermoML archive (doi:10.1021/je0501843).
Several values for one entry are separate records, joined by “and”; a condition that tells them apart may be missing. Equal entries are not always repeated.

Assay: molar heat capacity at constant volume
Conditions: Fluid (supercritical or subcritical phases), Vacuum adiabatic calorimetry

FC(F)C(F)(F)F [pentafluoroethane]
Conditions | molar heat capacity at constant volume
382 K, Mass density=585 kg/m3 | 117.04 J/K/mol
382 K, Mass density=687.5 kg/m3 | 116.38 J/K/mol
382 K, Mass density=772.5 kg/m3 | 113.59 J/K/mol
382 K, Mass density=880.7 kg/m3 | 113.14 J/K/mol
382 K, Mass density=972.5 kg/m3 | 113.55 J/K/mol and 110.23 J/K/mol
383 K, Mass density=403.3 kg/m3 | 116.83 J/K/mol
383 K, Mass density=502.6 kg/m3 | 115.94 J/K/mol
383 K, Mass density=585 kg/m3 | 116.44 J/K/mol
383 K, Mass density=687.4 kg/m3 | 115.8 J/K/mol
383 K, Mass density=772.4 kg/m3 | 112.32 J/K/mol
383 K, Mass density=880.7 kg/m3 | 112.41 J/K/mol
383 K, Mass density=972.4 kg/m3 | 107.88 J/K/mol and 110.36 J/K/mol
384 K, Mass density=403.3 kg/m3 | 115.53 J/K/mol
384 K, Mass density=502.6 kg/m3 | 114.75 J/K/mol
384 K, Mass density=585 kg/m3 | 115.28 J/K/mol
384 K, Mass density=687.4 kg/m3 | 113.97 J/K/mol
384 K, Mass density=772.4 kg/m3 | 111.67 J/K/mol
384 K, Mass density=880.6 kg/m3 | 112.26 J/K/mol
384 K, Mass density=972.3 kg/m3 | 108.78 J/K/mol and 109.57 J/K/mol
385 K, Mass density=403.2 kg/m3 | 109.7 J/K/mol
385 K, Mass density=502.5 kg/m3 | 112.54 J/K/mol
385 K, Mass density=584.9 kg/m3 | 115.82 J/K/mol
385 K, Mass density=687.4 kg/m3 | 113.72 J/K/mol
385 K, Mass density=772.3 kg/m3 | 112.59 J/K/mol
385 K, Mass density=880.6 kg/m3 | 111.79 J/K/mol
385 K, Mass density=972.3 kg/m3 | 110.01 J/K/mol and 109.27 J/K/mol
386 K, Mass density=403.2 kg/m3 | 109.65 J/K/mol
386 K, Mass density=502.5 kg/m3 | 114.07 J/K/mol
386 K, Mass density=584.9 kg/m3 | 117.48 J/K/mol
386 K, Mass density=687.3 kg/m3 | 115.04 J/K/mol
386 K, Mass density=772.3 kg/m3 | 114.08 J/K/mol
386 K, Mass density=880.5 kg/m3 | 113.14 J/K/mol
386 K, Mass density=972.2 kg/m3 | 111.04 J/K/mol and 111.43 J/K/mol
387 K, Mass density=403.2 kg/m3 | 111.98 J/K/mol
387 K, Mass density=502.5 kg/m3 | 114.1 J/K/mol
387 K, Mass density=584.9 kg/m3 | 115.44 J/K/mol
387 K, Mass density=687.3 kg/m3 | 115.22 J/K/mol
387 K, Mass density=772.2 kg/m3 | 113.77 J/K/mol
387 K, Mass density=880.4 kg/m3 | 113.04 J/K/mol
387 K, Mass density=972.1 kg/m3 | 109.68 J/K/mol and 111.27 J/K/mol
388 K, Mass density=403.2 kg/m3 | 113.46 J/K/mol
388 K, Mass density=502.5 kg/m3 | 111.2 J/K/mol
388 K, Mass density=584.8 kg/m3 | 114.82 J/K/mol
388 K, Mass density=687.2 kg/m3 | 114.32 J/K/mol
388 K, Mass density=772.2 kg/m3 | 113.36 J/K/mol
388 K, Mass density=880.4 kg/m3 | 110.83 J/K/mol
388 K, Mass density=972 kg/m3 | 109.02 J/K/mol and 109.9 J/K/mol
389 K, Mass density=403.2 kg/m3 | 112.17 J/K/mol
389 K, Mass density=502.4 kg/m3 | 110.52 J/K/mol
389 K, Mass density=584.8 kg/m3 | 116.36 J/K/mol
389 K, Mass density=687.2 kg/m3 | 114.28 J/K/mol
389 K, Mass density=772.1 kg/m3 | 114.22 J/K/mol
389 K, Mass density=880.3 kg/m3 | 112.08 J/K/mol
389 K, Mass density=972 kg/m3 | 110.08 J/K/mol and 110.71 J/K/mol
390 K, Mass density=403.1 kg/m3 | 112.23 J/K/mol
390 K, Mass density=502.4 kg/m3 | 112.47 J/K/mol
390 K, Mass density=584.8 kg/m3 | 115.03 J/K/mol
390 K, Mass density=687.2 kg/m3 | 115.41 J/K/mol
390 K, Mass density=772.1 kg/m3 | 115.46 J/K/mol
390 K, Mass density=880.2 kg/m3 | 113.85 J/K/mol
390 K, Mass density=971.9 kg/m3 | 113.14 J/K/mol and 111.04 J/K/mol
